{"source": "patent US5641666A", "about": "“Soraphen A resistant fungi and acetyl-CoA carboxylase” (priority 1993, dated 1997)", "key": {"fungi": {"test_system": "fungi", "details": "cited from earlier work"}, "bacteria": {"test_system": "bacteria", "details": "cited from earlier work"}, "[1]": {"test_system": "diploids from the backcrosses of soraphen A resistant yeast strains", "experiment": "Determination of the minimal inhibitory concentration (MIC) on YPD-SOR plates, diploids from backcrosses of soraphen A resistant strains", "type": "cell-based, Saccharomyces cerevisiae", "details": "diploids from backcrosses vs wild-type", "protocol": "In a first step all of the mutants are backcrossed with the wild-type strain of the opposite mating type, the diploid strains are sporulated and the asci are subjected to tetrad analysis. From each cross at least six complete tetra are examined and all of them are found to segregate 2:2 for soraphen A resistance and soraphen A sensitivity. This indicates mutations at a single genetic locus.\nIn another step the MIC of the dipbids from the backcrosses is determined.\nYeast colonies are grown for 2 days at 30° C. on a YPD plate and replica pated on a set of YPD-SOR plates. The following soraphen A concentrations are used: 0 μg/ml, 0,35 μg/ml, 0,76 μg/ml, 1,5 μg/ml, 3,13 μg/ml 6,7 μg/ml, 15,45 μg/ml and 54,5 μg/ml. After growth for 24 hours at 30° C. the plates are inspected for growth."}, "acetyl-CoA carboxylase": {"test_system": "acetyl-CoA carboxylase", "details": "cited from earlier work"}, "YS 18 yeast cells": {"test_system": "YS 18 yeast cells", "experiment": "Growth curves of yeast in liquid YPD medium with soraphen A (OD600, viable cell titer)", "type": "cell-based, Saccharomyces cerevisiae", "protocol": "Saccharomyces cerevisiae strain YS 18 (MATeα; his 3-11, 3-15; leu 2-3, 2-112; ura 3-Δ5; can^R; cir^+) is chosen as the wild-type. YHV 18 (MATa; his 3-11, 3-15; leu 2-3, 2-112; ura 3-Δ5; canst; cir^+) is isolated after a mating type switch of YS 18 and is therefore isogenic.\n100 ml YPD medium in a 500 ml flask is inoculated with about 10^7 YS 18 yeast cells/ml and incubated for growth at 180 rpm at 30° C. Before the addition of soraphen A at time point 0, the cells have already been incubated for 1 hour. The control is treated identically, but receives no soraphen A. Total cell numers are monitored by measuring the OD600. The number of viable cells called the […] is determined by plating on YPD plates. The number of soraphen A resistant cells is counted by plating on YPD-SOR plates containing the same soraphen A concentration as in the flask."}, "[2]": {"test_system": "strains YS 18 and YHV 18 (culture A)", "experiment": "Plating of culture A on YPD-SOR-10", "type": "cell-based, Saccharomyces cerevisiae", "details": "10 μg/ml soraphen A, 30° C., 3 days", "protocol": "YPD-SOR-10 is YPD medium supplemented with 10 μg/ml soraphen A.\nEach of the isogenic strains YS 18 and YHV 18 is grown in 5 ml of YPD to late exponential phase. The culture is diluted 10^4 fold to give culture A the viable cell number of which is determined. Twenty tubes each containing 5 ml of YPD are inoculated with 10 μl of culture A, which corresponds to about 10 cells, and are incubated at 28° C. until a density of 10^7 cells/ml is attained. 1 ml aliquots of each of the tubes are plated on YPD-SOR-10 and the plates are incubated at 30° C. for 3 days. To ensure isolation of independent mutants from each of the 20 YPD-SOR-10 plates only colonies with different shape or sizes are selected. Mutant colonies are restreaked twice on YPD before storing them as glycerol stock cultures at -70° C.\nTo exclude the presence of soraphen A resistant routants at the beginning of the cultivation of culture A, the remainder of culture A is plated on YPD-SOR-10 and incubated at 30° C. for 3 days."}}}
{"smiles": "COC1/C=C/C(C)C2OC(O)(C(C)C(=O)OC(c3ccccc3)CCCCC1OC)C(OC)C(O)C2C", "note": "(centres unmarked) [soraphen A]", "values": [{"measurement": "activity as a fungicide", "setting": "fungi", "result": "strong activity as a fungicide"}, {"measurement": "effect on bacteria", "setting": "bacteria", "result": "without effect on bacteria"}, {"measurement": "sensitivity of the diploids compared with the wild-type strain", "setting": "[1]", "result": "None of the diploids is as sensitive to soraphen A as the wild-type strain"}, {"measurement": "interference with acetyl-CoA carboxylase", "setting": "acetyl-CoA carboxylase", "result": "shown to interfere with acetyl-CoA carboxylase"}, {"measurement": "MIC", "setting": "YS 18 yeast cells; Saccharomyces cerevisiae, YS 18 wild-type, YPD, 30° C., 180 rpm, read-out: minimal inhibitory concentration (MIC) as determined from the growth curves", "result": 0.1, "unit": "µg/mL"}, {"measurement": "duration of complete inhibition of growth", "setting": "YS 18 yeast cells; YS 18, YPD, 30° C., thereafter growth recovers due to soraphen A resistant mutants", "result": "approximately 40 hours"}, {"measurement": "cell killing (viable cell counts)", "setting": "YS 18 yeast cells; YS 18, during the first 20 hours", "result": "extensive cell killing occurs"}, {"measurement": "growth of colonies", "setting": "[2]", "result": "No growth of colonies is observed"}]}
